Measurements: patent US11168249B1, “Luminescent polydentate polycyclic compounds for metal ions” (priority 2012, dated 2021)
“Also recorded” adds a separate entry of the source.

Assays:
Assay type in all cases: physicochemical
[1] = Normalized emission spectra of D1 (L) and complexes in dry acetonitrile (FIG. 22); settings: D1 0.00013 M, metal ion 0.00012 M
Protocol: The concentration of D1 was 0.00013 M, and the metal ion concentration was 0.00012 M. The metal ions are added as perchlorates or acetates. The y-axis is luminescence intensity, and the x-axis is wavelength in nanometers. The free ligand L had maximum emission at 470 nm. The L+Ca(II) complex had maximum emission at 526 nm. The L+Zn(II) complex had maximum emission at 581 nm. The L+trifluoroacetate complex had maximum emission at 592 nm. The L+H^+ complex had maximum emission at 691 nm. The L+H^+ complex was formed using aluminum chloride dissolved in TFA and diluted with dry MeCN, and it is likely that HCl was produced in situ, and that this is protonating the ligand.

[2] = Normalized emission spectra of D1 (L) and complexes in the solid state (FIG. 23)
Description: The y-axis is luminescence intensity, and the x-axis is wavelength in nanometers. The free ligand L had maximum emission at 457 nm. The L+Ca complex had maximum emission at 519 nm. The L+Zn complex had maximum emission at 556 nm. Al/H^+ complex had maximum emission at 651 nm. This latter complex is a protonated ligand obtained by using aluminum perchlorate, which produced acid in situ.
The curve labeled Al/H+(N) was obtained by using protonated ligand obtained by treating the ligand with aluminum perchlorate.

[3] = Fluorescence color of D1 in acetonitrile solution with and without metal ions under UV 365 nm (FIG. 1); settings: D1 0.004 M
Protocol: FIG. 1 is a set of pictures showing the change in color of derivative compound D1 in the absence and presence of various metal ions (Mg^2+, Sr^2+, Ca^2+, Cd^2+, Zn^2+, H^+) in solution. The solvent was acetonitrile, the concentration of D1 was 0.004 M, and the metal ion concentration was 0.04 M. The metal ions are added as perchlorates or acetates. The solutions were exposed to UV light having an excitation wavelength of 365 nm.
With no metal, the D1 solution was blue. With Mg^2+, the solution was a blue-green color. With Sr^2+, the solution was a green-blue color. With Ca^2+, the solution was a green color. With Cd^2+, the solution was an olive green color. With Zn^2+, the solution was a yellow-orange color. With H^+, the solution was a red color.

[4] = Fluorescence color of D1 in acetonitrile solution with one equivalent of metal perchlorate under UV 365 nm (FIG. 4)
Protocol: FIG. 4 is a set of pictures showing the change in color of derivative compound D1 in the absence and presence of various metal ions (Ca^2+, Zn^2+, H^+, Pb^2+) in solution (perchlorate salts), both under ordinary light and under UV light (365 nm). The solvent was acetonitrile, the concentration of D1 was 0.0001 M, and one equivalent of the metal perchlorate salt was added. For H^+, an aluminum perchlorate salt was used, which produced acid (H^+) that protonated the ligand.
Under UV light, the D1 solution alone is blue. With Ca(II), the solution is green. With Zn(II), the solution is yellow-orange. With Al(III) perchlorate, the solution is red. This red color resulted from an unexpected hydrolysis reaction that produced acid (H^+). The protonated ligand provided the red color. With Pb(II), the solution is black, i.e. the blue color that would other be visible has been quenched.

[5] = Fluorescence color in the solid state with and without metal ions or acids under UV 365 nm (FIGS. 2, 5, 6, 7, 24, 25)
Description: FIG. 2 is a set of pictures showing the change in color of derivative compound D1 in the absence and presence of various metal ions (Ca^2+, Sr^2+, Cd^2+, Zn^2+, Ba^2+, Ha^+, Hb^+, Ni^2+) in the solid state. The sample labeled Ha^+ was isolated from a KOH/ethanol solution after treatment with trifluoroacetic acid (TFA). The sample labeled Hb^+ was obtained by using aluminum perchlorate, which produced acid (H^+) due to an unexpected hydrolysis reaction with the medium.
FIG. 5 is a set of pictures showing the change in color of derivative compound D1 in the absence and presence of various metal ions or acids (Ca^2+, Zn^2+, H^+, Pb^2+) in the solid state, both under ordinary light and under UV light (365 nm). Perchlorate salts were used. When the aluminum salt was used, an unexpected hydrolysis produced acid (H^+) which protonated the ligand.
FIG. 6 is a set of pictures showing the change in color of derivative compound D1 in the absence and presence of various metal ions or acids (H^+, Co^2+, Ni^2+, Cu^2+) in the solid state, both under ordinary light and under UV light (365 nm). Perchlorate salts were used.
FIG. 7 is a set of pictures showing the change in color of derivative compound D1 in the absence and presence of various metal ions or acids (AgNO3, Hg^2+, Pb^2+) and of the free compound D7 (no metal ion) in the solid state, both under ordinary light and under UV light (365 nm).
FIG. 24 is a set of pictures showing the change in color of complexes of D1 with perchlorate salts of various metal ions (Ca^2+, Sr^2+, Cd^2+) in the solid state, both under ordinary light and under UV light (365 nm).
FIG. 25 is a set of pictures showing the change in color of complexes of D1 with salts of various metal ions (Zn^2+, Ba^2+, Ha^+, Hb^+) in the solid state, both under ordinary light and under UV light (365 nm). The zinc and barium are perchlorate salts. The complex labeled “From KOH/EtOH/TFA” was obtained from a solution of KOH and ethanol upon addition of TFA. It is unclear what is causing the orange color, but it is most likely acid, therefore the label “Ha^+”. The HClO4 complex was obtained by using aluminum perchlorate, which produced acid (H^+) that protonated the ligand.
With no metal, the D1 powder was blue. With Ca^2+, the powder was a blue-green color. With Sr^2+, the powder was a green color. With Cd^2+, the powder was a yellow-green color. With Zn^2+, the powder was a yellow color. With Ba^2+, the powder was a dark yellow color. […] Powder isolated from solutions containing AlCl3 or Al(ClO4)3 was a red color. […] With Ni^2+, the powder was black (i.e. fluorescence was quenched).
FIG. 5 is a set of pictures showing fluorescence of D1 in the solid state, under ordinary light (top row) and under UV light (365 nm) (bottom row). In column A, the free ligand sample (i.e. no metal ions) is blue. In column B with Ca(II), the powder is green. In column C with Zn(II), the powder is yellow. In column D with Al(III), the powder is red. Again, this appears to be due to acid (H^+). In column E with Pb(II), the powder is non-fluorescent.
FIG. 6 is a set of pictures showing fluorescence of D1 in the solid state, under ordinary light (top row) and under UV light (365 nm) (bottom row). In the first column ligand treated with La(III) perchlorate produced a powder that fluoresces red. […] In the second column with Co(II), the powder is non-fluorescent. In the third column with Ni(II), the powder is non-fluorescent. In the fourth column with Cu(II), the powder is non-fluorescent.
FIG. 7 is a set of pictures showing fluorescence of D1 in the solid state, under ordinary light (top row) and under UV light (365 nm) (bottom row). In the first column with silver nitrate (AgNO3), the powder is non-fluorescent. […] In the third column with Pb(II), the powder is non-fluorescent. In the fourth column, the free compound D7 is shown, and is non-fluorescent. […]

[6] = Fluorescent properties of L4 in water/chloroform two-layer vials with metal ions and acid (FIG. 8)
Description: FIG. 8 is a set of pictures showing the fluorescent properties of compound L4 in two different solvents (water and chloroform) in the presence of different metal ions o and acid (NaCl, CaCl2), HCl) under ordinary light and under UV light (365 nm). The concentration of L4 was 0.00032 M. Vial #2 used aqueous sodium chloride, Vial #3 included aqueous calcium chloride, and Vial #4 included dilute hydrochloric acid.
FIG. 8 is a set of pictures showing the fluorescent properties of compound L4 in two different solvents (water and chloroform) under ordinary light and under UV light (365 nm). Vial #1 contains only L4, Vial #2 contains sodium chloride, Vial #3 contains calcium chloride, and Vial #4 contains hydrochloric acid. The two layers in each vial were mixed, then allowed to separate and observed. […] There is no reaction to sodium in Vial #2. […] It is believed that this migration will only occur with a metal ion of the proper size and sufficiently high ionic charge. […] Interference from acid is, therefore, not expected to cause false positive results.

In the case of COc1cccc2cc3c(nc12)-c1nc2c(OC)cccc2cc1CC3 [Compound D1, 8,8′-Dimethoxy-3,3′-dimethylene-2,2′-biquinoline], the maximum emission [1] is reported as 470 nm, the maximum emission [2] is reported as 457 nm and the color of solution ([3]; Ca^2+ 0.04 M) is reported as “green”. For the same compound, the color of solution ([3]; Cd^2+ 0.04 M) was “olive green”, the color of solution ([3]; H^+) was “red” and the color of solution ([3]; Mg^2+ 0.04 M) was “blue-green”. For the same compound, the color of solution ([3]; Sr^2+ 0.04 M) was “green-blue”, the color of solution ([3]; Zn^2+ 0.04 M) was “yellow-orange” and the color of solution ([3]; no metal) was “blue”. For the same compound, the “color of solution under UV light” value ([4]; D1 0.0001 M alone) was “blue”, the “color of solution under UV light” value ([4]; D1 0.0001 M, Al(III) perchlorate (produced acid H^+, protonated ligand)) was “red” and the “color of solution under UV light” value ([4]; D1 0.0001 M, one equivalent Ca(II) perchlorate) was “green”. For the same compound, the “color of solution under UV light” value ([4]; D1 0.0001 M, one equivalent Pb(II) perchlorate) was “black”, the “color of solution under UV light” value ([4]; D1 0.0001 M, one equivalent Zn(II) perchlorate) was “yellow-orange” and the fluorescence of powder ([5]; free compound (no metal ions)) was “blue”. The fluorescence of powder ([5]; from AlCl3 or Al(ClO4)3 (acid H^+, protonated ligand; Hb^+/HClO4)) was “red”, the fluorescence of powder ([5]; isolated from ethanolic KOH treated with TFA (Ha^+)) was “orange” and the fluorescence of powder ([5]; treated with La(III) perchlorate (acid H^+, protonated ligand)) was “red”. The fluorescence of powder ([5]; with Ca^2+) was “blue-green”, the fluorescence of powder ([5]; with Cd^2+) was “yellow-green” and the fluorescence of powder ([5]; with Co(II)) was “non-fluorescent”. The fluorescence of powder ([5]; with Cu(II)) was “non-fluorescent”, the fluorescence of powder ([5]; with Hg(II)) was “barely fluoresces” and the fluorescence of powder ([5]; with Ni^2+) was “black; also recorded: non-fluorescent”. For the same compound, the fluorescence of powder ([5]; with Pb(II)) was “non-fluorescent”, the fluorescence of powder ([5]; with Sr^2+) was “green” and the fluorescence of powder ([5]; with Zn^2+) was “yellow”. For the same compound, the fluorescence of powder ([5]; with silver nitrate (AgNO3)) was “non-fluorescent”.
With CCCCc1c2c(nc3c1CCc1cc4cccc(OCC(=O)OC)c4nc1-3)-c1nc3c(OCC(=O)OC)cccc3cc1CC2 [Compound L4, 8-butyl-1,15-bis(methoxycarbonylmethoxy)-diquinolino[2,3-c:3′,2′-h]-6,7,9,10-tetrahydroacridine] the “layer in which the compound is present” value ([6]; Vial #1, only L4 0.00032 M) was “chloroform layer”, the response to sodium ([6]; Vial #2, aqueous sodium chloride, L4 0.00032 M) was “no reaction” and the “migration of the complex between layers” value ([6]; Vial #3, aqueous calcium chloride) was “migrated to the water layer”. For the same compound, the fluorescent response ([6]; Vial #3, aqueous calcium chloride (Ca^2+), UV 365 nm) was “intense blue” and the fluorescence ([6]; Vial #4, dilute hydrochloric acid, UV 365 nm) was “green”.
